Reference: patent US20260207560A1, “PLURALITY OF GRANULES” (priority 2022, published 2026)
“And” between values parts separate entries of the source, which are not always exact repeats. Equal values may be shown once.

Key:
[1] = Stability of active ingredient in volatile solvents, 20-28 hours at ambient (UPLC assay and impurities); conditions: for Assay (as % of nominal): vial replicates
Procedure: Note the incubation for the stability studies were all performed in a similar way: • All were put into 4 mL amber glass vials. • The Initial samples were not analysed as soon as sampled but instead were frozen at −20° C. until the point of analysing the incubated samples (e.g after 28 days at 25, 40 or 50° C.) to avoid degradation of the active ingredient.
Chemical stability was determined by assay (results in Table 8) and quantification of potential active ingredient related substances (shown in
Table 9). […] The objective was to establish whether any active ingredient-related substances might be increasing as a result of the ambient hold.

[2] = in vivo; cited from earlier work
[3] = 5% SLS aq., Initial, listed as active ingredient
[4] = Ethanol absolute, 24 hour, listed as active ingredient
[5] = Ethanol absolute, Initial, listed as active ingredient
[6] = pH 3 citric acid buffer, 24 hour
[7] = pH 3 citric acid buffer, 24 hour, listed as active ingredient
[8] = pH 3 citric acid buffer, Initial
[9] = pH 3 citric acid buffer, Initial, listed as active ingredient

In the case of CCS(=O)(=O)Nc1ccc2c(c1)nc(C(C)(C)C)n2CC1CCC(F)(F)CC1 [Compound I, N-(2-(tert-butyl)-1-((4,4-difluorocyclohexyl)methyl)-1H-benzimidazol-5-yl)ethanesulfonamide], the “Impurity peak area, Total excluding artifact” value [1, 3] is reported as 0.96 % of Total and 0.88 % of Total, the “Assay (as % of nominal)” value [1, 3] is reported as 105.0 % of nominal and 101.7 % of nominal and the “Assay (as % of nominal), Mean” value ([1]; Ethanol Absolute, 24 hours ambient) is reported as 99.0 % of nominal. For the same compound, the “Assay (as % of nominal)” value ([1]; Ethanol Absolute, 24 hours ambient, listed as active ingredient) was 100.2 % of nominal and 97.7 % of nominal, the “Assay (as % of nominal)” value ([1]; Ethanol Absolute, Initial) was 107.1 % of nominal and the “Assay (as % of nominal)” value ([1]; Ethanol Absolute, Initial, listed as active ingredient) was 90.6 % of nominal. The “Impurity peak area, RRT 0.86^$ (PDA spectra unrelated to the active ingredient)” value ([1]; Ethanol absolute, 24 hour) was <0.05 % of Total, the “Impurity peak area, RRT 0.92” value ([1]; Ethanol absolute, 24 hour) was <0.05 % of Total and the “Impurity peak area, RRT 1.04*” value ([1]; Ethanol absolute, 24 hour) was <0.05 % of Total. For the same compound, the “Impurity peak area, RRT 1.23*” value ([1]; Ethanol absolute, 24 hour) was 0.07 % of Total, the “Impurity peak area, RRT 1.24*” value ([1]; Ethanol absolute, 24 hour) was <0.05 % of Total and the “Impurity peak area, RRT 1.35*” value ([1]; Ethanol absolute, 24 hour) was 0.08 % of Total. For the same compound, the “Impurity peak area, RRT 1.36*” value ([1]; Ethanol absolute, 24 hour) was 0.06 % of Total, the “Impurity peak area, RRT 0.84*” value [1, 4] was 0.33 % of Total and 0.35 % of Total and the “Impurity peak area, RRT 0.98* (first row)” value [1, 4] was 0.22 % of Total and 0.20 % of Total. The “Impurity peak area, RRT 0.98* (second row)” value [1, 4] was 0.13 % of Total and 0.14 % of Total, the “Impurity peak area, Total” value [1, 4] was 0.89 % of Total and 0.90 % of Total and the “Impurity peak area, Total excluding artifact” value [1, 4] was 0.89 % of Total and 0.90 % of Total. For the same compound, the “Assay (as % of nominal), Mean” value ([1]; Ethanol absolute, Initial) was 98.8 % of nominal, the “Impurity peak area, RRT 0.38” value ([1]; Ethanol absolute, Initial) was 0.07 % of Total and the “Impurity peak area, RRT 0.61” value ([1]; Ethanol absolute, Initial) was 0.08 % of Total. The “Impurity peak area, RRT 0.62” value ([1]; Ethanol absolute, Initial) was 0.09 % of Total, the “Impurity peak area, RRT 0.83” value ([1]; Ethanol absolute, Initial) was 0.18 % of Total and the “Impurity peak area, RRT 0.92” value ([1]; Ethanol absolute, Initial) was <0.05 % of Total. For the same compound, the “Impurity peak area, RRT 0.98* (second row)” value ([1]; Ethanol absolute, Initial) was 0.12 % of Total, the “Impurity peak area, RRT 1.24*” value ([1]; Ethanol absolute, Initial) was <0.05 % of Total and the “Impurity peak area, RRT 1.36*” value ([1]; Ethanol absolute, Initial) was 0.06 % of Total. For the same compound, the “Impurity peak area, RRT 0.84*” value [1, 5] was 0.37 % of Total and 0.33 % of Total, the “Impurity peak area, RRT 0.98* (first row)” value [1, 5] was 0.20 % of Total and 0.22 % of Total and the “Impurity peak area, RRT 1.04*” value [1, 5] was 0.05 % of Total and <0.05 % of Total. For the same compound, the “Impurity peak area, RRT 1.23*” value [1, 5] was 0.08 % of Total and 0.07 % of Total, the “Impurity peak area, RRT 1.35*” value [1, 5] was 0.08 % of Total and 0.09 % of Total and the “Impurity peak area, Total” value [1, 5] was 0.96 % of Total and 1.47 % of Total. The “Impurity peak area, Total excluding artifact” value [1, 5] was 0.96 % of Total and 0.89 % of Total, the “Degradation of the active ingredient” value ([1]; four volatile solvents, 20-28 hour hold at ambient temperature) was “no evidence for any active ingredient degradation” and the “Total impurities, highest in any case” value ([1]; four volatile solvents, initial and 20-28 hour ambient hold) was ≤ 1.17 % of the total peak area. The “Impurity peak area, RRT 0.92” value [1, 6] was 0.06 % of Total, the “Impurity peak area, RRT 1.04*” value [1, 6] was 0.09 % of Total and the “Impurity peak area, RRT 1.23*” value [1, 6] was 0.10 % of Total. The “Impurity peak area, RRT 0.38” value [1, 7] was 0.26 % of Total and 0.14 % of Total, the “Impurity peak area, RRT 0.61” value [1, 7] was 0.07 % of Total and 0.10 % of Total and the “Impurity peak area, RRT 0.62” value [1, 7] was 0.07 % of Total and 0.11 % of Total. For the same compound, the “Impurity peak area, RRT 0.83” value [1, 7] was 0.30 % of Total and 0.16 % of Total, the “Impurity peak area, RRT 0.84*” value [1, 7] was 0.30 % of Total and 0.37 % of Total and the “Impurity peak area, RRT 0.98* (first row)” value [1, 7] was 0.22 % of Total and 0.21 % of Total. For the same compound, the “Impurity peak area, RRT 0.98* (second row)” value [1, 7] was 0.13 % of Total and 0.14 % of Total, the “Impurity peak area, RRT 1.24*” value [1, 7] was <0.05 % of Total and 0.06 % of Total and the “Impurity peak area, Total” value [1, 7] was 1.88 % of Total and 1.82 % of Total. For the same compound, the “Impurity peak area, Total excluding artifact” value [1, 7] was 0.90 % of Total and 1.03 % of Total, the “Assay (as % of nominal), Mean” value ([1]; pH 3 citric acid buffer, 24 hours ambient) was 95.8 % of nominal and the “Assay (as % of nominal)” value ([1]; pH 3 citric acid buffer, 24 hours ambient, listed as active ingredient) was 109.6 % of nominal and 82.1 % of nominal. The “Assay (as % of nominal), Mean” value [1, 8] was 109.6 % of nominal, the “Impurity peak area, RRT 0.38” value [1, 8] was 0.27 % of Total and the “Impurity peak area, RRT 0.41” value [1, 8] was 0.26 % of Total. For the same compound, the “Impurity peak area, RRT 0.61” value [1, 8] was 0.05 % of Total, the “Impurity peak area, RRT 0.62” value [1, 8] was 0.06 % of Total and the “Impurity peak area, RRT 0.83” value [1, 8] was 0.21 % of Total. For the same compound, the “Impurity peak area, RRT 0.86^$ (PDA spectra unrelated to the active ingredient)” value [1, 8] was <0.05 % of Total, the “Impurity peak area, RRT 1.04*” value [1, 8] was 0.09 % of Total and the “Impurity peak area, RRT 1.24*” value [1, 8] was <0.05 % of Total. For the same compound, the “Impurity peak area, RRT 0.92” value [1, 9] was 0.10 % of Total and 0.09 % of Total, the “Impurity peak area, RRT 0.98* (first row)” value [1, 9] was 0.23 % of Total and 0.21 % of Total and the “Impurity peak area, RRT 0.98* (second row)” value [1, 9] was 0.11 % of Total and 0.13 % of Total. The “Impurity peak area, RRT 1.23*” value [1, 9] was 0.16 % of Total and 0.12 % of Total, the “Impurity peak area, Total” value [1, 9] was 1.79 % of Total and 0.97 % of Total and the “Impurity peak area, Total excluding artifact” value [1, 9] was 0.94 % of Total and 0.97 % of Total. For the same compound, the “Assay (as % of nominal)” value [1, 9] was 108.8 % of nominal and 110.4 % of nominal, the CNS-psychoactive effects [2] was “does not cause CNS-psychoactive effects” and the Effect on appetite [2] was “stimulate appetite in a dose-dependent manner”.
